According to article PMC10709440, “High-throughput ligand profile characterization in novel cell lines expressing seven heterologous insect olfactory receptors for the detection of volatile plant biomarkers” (Scientific Reports, 2023):
Read-outs that look alike come from different tables or passages of the source.

Tests used:
Drosophila OR49b = target: T1, Drosophila OR49b (Drosophila melanogaster, UniProt Q9V6H2); assay: cell-based; conditions: for Average response / OR49b response (VUAA1-normalized) at 1 μM / OR49b response (VUAA1-normalized) at 10 μM / OR49b response (VUAA1-normalized) at 100 μM: OR49b cell line; for Average response: mean of biological replicates; for activation at 1 µM / activation at 10 µM / activation at 100 µM: HEK293
T1 construct: expressed in transfected cells
T1 sequence (Q9V6H2 1-375): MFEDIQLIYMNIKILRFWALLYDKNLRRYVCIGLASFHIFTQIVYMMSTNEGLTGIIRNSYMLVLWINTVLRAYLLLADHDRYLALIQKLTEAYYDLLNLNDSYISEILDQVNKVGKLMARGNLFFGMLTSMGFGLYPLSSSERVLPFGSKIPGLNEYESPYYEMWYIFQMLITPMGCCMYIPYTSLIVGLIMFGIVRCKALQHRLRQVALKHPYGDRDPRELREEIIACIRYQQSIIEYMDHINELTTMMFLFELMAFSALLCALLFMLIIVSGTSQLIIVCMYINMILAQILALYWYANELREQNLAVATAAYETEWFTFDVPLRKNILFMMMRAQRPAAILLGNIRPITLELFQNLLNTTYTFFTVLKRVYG
T1 sequence (Q9VNB5 1-486 partner): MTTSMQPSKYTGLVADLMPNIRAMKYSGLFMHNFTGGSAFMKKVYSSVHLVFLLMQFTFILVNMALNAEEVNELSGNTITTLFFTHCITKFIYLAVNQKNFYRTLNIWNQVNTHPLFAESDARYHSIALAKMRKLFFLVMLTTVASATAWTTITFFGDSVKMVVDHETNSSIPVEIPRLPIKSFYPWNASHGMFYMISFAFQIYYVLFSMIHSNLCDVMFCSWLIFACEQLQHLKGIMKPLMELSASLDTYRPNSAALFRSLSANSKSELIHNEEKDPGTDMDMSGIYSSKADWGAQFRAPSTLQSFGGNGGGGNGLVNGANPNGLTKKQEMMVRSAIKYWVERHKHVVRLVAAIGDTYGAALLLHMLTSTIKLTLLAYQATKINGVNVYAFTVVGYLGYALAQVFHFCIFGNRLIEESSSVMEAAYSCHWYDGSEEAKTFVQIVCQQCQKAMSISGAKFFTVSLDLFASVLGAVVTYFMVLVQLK
Method in brief: (§1)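 HEK293 lines stably expressing each Drosophila OR with GCaMP6, doxycycline-induced (1 μg/mL) 48 or 72 h. Fluorescence recorded 5 s baseline then 30 s after VOC injection at pH 7.3; ΔF=(FMAX−F0)/F0, normalized to 50 µM VUAA1 response per line, triplicate wells averaged; concentration series 0.01–100 μM.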

Drosophila OR13a = target: T2, Drosophila OR13a (Drosophila melanogaster, UniProt Q9VXL0); assay: Calcium ion fluorescence (GCaMP6) assay, OR13a stable HEK293 cell line; assay type: cell-based; conditions: for OR13a response (VUAA1-normalized) at 1 μM / OR13a response (VUAA1-normalized) at 10 μM / OR13a response (VUAA1-normalized) at 100 μM: OR13a cell line; for OR13a response (VUAA1-normalized) at 1 μM: VOC concentration 1 μM; for OR13a response (VUAA1-normalized) at 10 μM: VOC concentration 10 μM; for OR13a response (VUAA1-normalized) at 100 μM: VOC concentration 100 μM
T2 construct: expressed in transfected cells
T2 sequence (Q9VXL0 1-418): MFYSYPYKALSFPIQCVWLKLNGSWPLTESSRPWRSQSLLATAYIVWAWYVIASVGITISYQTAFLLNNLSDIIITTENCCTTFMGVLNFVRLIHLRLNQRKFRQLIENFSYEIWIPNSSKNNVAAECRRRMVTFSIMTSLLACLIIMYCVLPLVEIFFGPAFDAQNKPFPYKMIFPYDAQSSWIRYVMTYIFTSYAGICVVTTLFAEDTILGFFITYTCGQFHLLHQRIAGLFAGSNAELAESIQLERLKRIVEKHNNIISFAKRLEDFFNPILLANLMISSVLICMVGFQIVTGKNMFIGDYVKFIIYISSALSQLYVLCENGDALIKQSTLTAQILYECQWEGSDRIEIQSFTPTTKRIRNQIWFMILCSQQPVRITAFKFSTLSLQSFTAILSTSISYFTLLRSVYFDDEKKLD
T2 sequence (Q9VNB5 1-486 partner): T1 sequence (Q9VNB5 1-486 partner)
Method in brief: as §1

[1] = ligand concentration 1 (unit not given), 0.05 threshold, values below shown as 0
[2] = ligand concentration 10 (unit not given), 0.05 threshold, values below shown as 0
[3] = ligand concentration 100 (unit not given), 0.05 threshold, values below shown as 0
[4] = HEK293, read-out: OR13a Average response (VUAA1-normalized), 1 μM VOC, 50 μM VUAA1 = 1, responses not exceeding 0.05 considered 0
[5] = HEK293, read-out: OR13a Average response (VUAA1-normalized), 10 μM VOC, 50 μM VUAA1 = 1, responses not exceeding 0.05 considered 0
[6] = HEK293, read-out: OR13a Average response (VUAA1-normalized), 100 μM VOC, 50 μM VUAA1 = 1, responses not exceeding 0.05 considered 0
[7] = 1 μM VOC, 50 μM VUAA1 = 1, read-out: OR49b Average response (VUAA1-normalized)
[8] = 10 μM VOC, 50 μM VUAA1 = 1, read-out: OR49b Average response (VUAA1-normalized)
[9] = 100 μM VOC, 50 μM VUAA1 = 1, read-out: OR49b Average response (VUAA1-normalized)
[10] = ligand concentration 1 (unit not given), threshold 0.05, below shown as 0
[11] = ligand concentration 10 (unit not given), threshold 0.05, below shown as 0
[12] = ligand concentration 100 (unit not given), threshold 0.05, below shown as 0
[13] = VOC concentration 1 μM, read-out: OR49b response (VUAA1-normalized response)
[14] = VOC concentration 10 μM, read-out: OR49b response (VUAA1-normalized response)
[15] = VOC concentration 100 μM, read-out: OR49b response (VUAA1-normalized response)
[16] = HEK293, read-out: OR13a response (VUAA1-normalized response), VOC concentration 1 μM
[17] = HEK293, read-out: OR13a response (VUAA1-normalized response), VOC concentration 10 μM
[18] = HEK293, read-out: OR13a response (VUAA1-normalized response), VOC concentration 100 μM
[19] = concentration 1, normalized fluorescence change, values below 0.05 threshold given as 0
[20] = concentration 10, normalized fluorescence change, values below 0.05 threshold given as 0
[21] = concentration 100, normalized fluorescence change, values below 0.05 threshold given as 0

| SMILES | Average response (Drosophila OR49b; odorant cc. 1 µM) | Average response (Drosophila OR49b; odorant cc. 10 µM) | Average response (Drosophila OR49b; odorant cc. 100 µM) | DF norm AVERAGE OR49b (Drosophila OR49b; [1]) | DF norm AVERAGE OR49b (Drosophila OR49b; [2]) | DF norm AVERAGE OR49b (Drosophila OR49b; [3]) | activation at 1 µM (Drosophila OR13a; [4]) [%] | activation at 10 µM (Drosophila OR13a; [5]) [%] | activation at 100 µM (Drosophila OR13a; [6]) [%] | DF norm AVERAGE OR13a (Drosophila OR13a; [1]) | DF norm AVERAGE OR13a (Drosophila OR13a; [2]) | activation at 1 µM (Drosophila OR49b; [13]) [%] | activation at 10 µM (Drosophila OR49b; [14]) [%] | activation at 100 µM (Drosophila OR49b; [15]) [%] | activation at 1 µM (Drosophila OR13a; [16]) [%] | activation at 10 µM (Drosophila OR13a; [17]) [%] | activation at 100 µM (Drosophila OR13a; [18]) [%] | DF norm AVERAGE OR13a (Drosophila OR13a; [19]) | DF norm AVERAGE OR13a (Drosophila OR13a; [20]) | DF norm AVERAGE OR13a (Drosophila OR13a; [21]) | also measured |
| --- | --- | --- | --- | --- | --- | --- | --- | --- | --- | --- | --- | --- | --- | --- | --- | --- | --- | --- | --- | --- | --- |
| CC/C=C\CCOC(C)=O [z3-hexenyl acetate] | 0.0379 | 0.0171 | 0.04 | 0 | 0 | 0 | 0 | 2.61 | 9 | 0 | 0 | – | – | – | – | – | – | – | – | – | DF norm AVERAGE OR13a (Drosophila OR13a; [3]): 0.09283 |
| Cc1cccc(C)c1 [m-xylene] | 0.00 | 0.0251 | 0.27 | – | – | – | 0 | 0 | 4 | – | – | – | – | – | – | – | – | – | – | – | activation at 1 µM (Drosophila OR49b; [7]): 0%; activation at 10 µM (Drosophila OR49b; [8]): 3%; activation at 100 µM (Drosophila OR49b; [9]): 27%; OR49b response (VUAA1-normalized) at 1 μM (Drosophila OR49b; VOC concentration 1 μM): 0.00; OR49b response (VUAA1-normalized) at 10 μM (Drosophila OR49b; VOC concentration 10 μM): 0.00; OR49b response (VUAA1-normalized) at 100 μM (Drosophila OR49b; VOC concentration 100 μM): 0.27; DF norm AVERAGE OR49b (Drosophila OR49b; [10]): 0; DF norm AVERAGE OR49b (Drosophila OR49b; [11]): 0; DF norm AVERAGE OR49b (Drosophila OR49b; [12]): 0.2713; OR13a response (VUAA1-normalized) at 1 μM (Drosophila OR13a): 0.00; OR13a response (VUAA1-normalized) at 10 μM (Drosophila OR13a): 0.00; OR13a response (VUAA1-normalized) at 100 μM (Drosophila OR13a): 0.00; DF norm AVERAGE OR13a (Drosophila OR13a; [10]): 0; DF norm AVERAGE OR13a (Drosophila OR13a; [11]): 0; DF norm AVERAGE OR13a (Drosophila OR13a; [12]): 0 |
| CCCCC(C)O (stereo not shown) [2-hexanol] | 0.00 | 0.00 | 0.0161 | – | – | – | 0 | 0 | 5 | – | – | 0 | 0 | 0 | 0 | 0 | 0 | 0 | 0 | 0 | DF norm AVERAGE OR49b (Drosophila OR49b): 0 |
| Cc1ccc(O)cc1 [4-methylphenol] | 0.0329 | 0.11 | 0.44 | – | – | – | 4.62 | 2 | 1.38 | – | – | 0 | 11 | 44 | 0 | 0 | 0 | 0 | 0 | 0 | activation at 1 µM (Drosophila OR49b; [7]): 3%; activation at 10 µM (Drosophila OR49b; [8]): 11%; activation at 100 µM (Drosophila OR49b; [9]): 44% |
| CC1=CCC23CC1C(C)(C)C2CCC3C (stereo not drawn) [α-funebrene] | 0.00 | 0.00 | 0.00 | 0 | 0 | 0 | 0 | 0 | 0 | 0 | 0 | – | – | – | – | – | – | – | – | – | OR49b response (VUAA1-normalized) at 1 μM (Drosophila OR49b; VOC concentration 1 μM): 0.00; OR49b response (VUAA1-normalized) at 10 μM (Drosophila OR49b; VOC concentration 10 μM): 0.00; OR49b response (VUAA1-normalized) at 100 μM (Drosophila OR49b; VOC concentration 100 μM): 0.00; OR13a response (VUAA1-normalized) at 1 μM (Drosophila OR13a): 0.00; OR13a response (VUAA1-normalized) at 10 μM (Drosophila OR13a): 0.00; OR13a response (VUAA1-normalized) at 100 μM (Drosophila OR13a): 0.00; DF norm AVERAGE OR13a (Drosophila OR13a; [3]): 0 |
| CCCCCCCCC(CO)CCCCCC (stereo not shown) [2-hexyl-1-decanol] | 0.00 | 0.00 | 0.0856 | – | – | – | 7 | 0 | 0 | – | – | 0 | 0 | 8.56 | 7 | 0 | 0 | 0.07079 | 0 | 0 | – |
